Experimental data reported in ChEMBL document CHEMBL3871307, “Discovery of Chromane Propionic Acid Analogues as Selective Agonists of GPR120 with in Vivo Activity in Rodents” (ACS Med Chem Lett, 2017).
Calls of active or inactive are those of the source. The calls are words filed in the database; no cut-off is given here.

Assays:
[1] = system: Mus musculus; test: In vivo agonist activity at GPR120 in wild type C57BL/6 transverse aortic constriction mouse assessed as glucose lowering effect at 150 mg/kg, po via gavage pretreated for 60 mins followed by dextrose challenge measured up to 120 mins post glucose challenge by OGTT; format: functional, organism-based
[2] = system: Mus musculus; test: Glucose lowering effect in C57BL/6 transverse aortic constriction mouse assessed as reduction in blood glucose at 3 to 30 mg/kg, po via gavage pretreated for 60 mins followed by dextrose challenge measured up to 120 mins post glucose challenge by OGTT; format: functional, organism-based
[3] = target: T1, Peroxisome proliferator-activated receptor delta (Homo sapiens) (UniProt Q03181); test: Activity at PPARdelta (unknown origin)
T1 sequence (whole entry): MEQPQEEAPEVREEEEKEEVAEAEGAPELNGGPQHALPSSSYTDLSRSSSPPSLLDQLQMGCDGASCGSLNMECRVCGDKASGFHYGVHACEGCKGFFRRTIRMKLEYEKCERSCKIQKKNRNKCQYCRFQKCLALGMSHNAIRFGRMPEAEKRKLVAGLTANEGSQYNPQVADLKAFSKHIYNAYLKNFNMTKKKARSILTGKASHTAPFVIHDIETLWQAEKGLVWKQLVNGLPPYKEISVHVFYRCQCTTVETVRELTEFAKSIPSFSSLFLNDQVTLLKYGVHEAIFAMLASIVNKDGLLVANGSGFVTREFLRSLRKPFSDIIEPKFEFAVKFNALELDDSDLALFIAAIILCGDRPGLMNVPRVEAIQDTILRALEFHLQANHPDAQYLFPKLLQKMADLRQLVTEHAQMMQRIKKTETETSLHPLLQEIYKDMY

[4] = Plasma concentration in GPR120 knockout C57BL/6 transverse aortic constriction mouse at 150 mg/kg, po measured at 3 hrs; format: ADME, organism-based; conditions: C57BL/6, mouse
[5] = Terminal half life in rhesus monkey plasma at 0.5 mg/kg, iv or 1 mg/kg, po by LC/MS/MS analysis; format: ADME, organism-based, Macaca mulatta; conditions: read-out: beta t1/2 (converted)
[6] = target: T2, Free fatty acid receptor 4 (Mus musculus, UniProt Q7TMA4); test: Agonist activity at mouse GPR120 expressed in CHOK1 cells assessed as increase in IP1 accumulation after 60 mins by HTRF assay; format: functional, cell-based, CHO-K1
T2 sequence (Q7TMA4 whole entry): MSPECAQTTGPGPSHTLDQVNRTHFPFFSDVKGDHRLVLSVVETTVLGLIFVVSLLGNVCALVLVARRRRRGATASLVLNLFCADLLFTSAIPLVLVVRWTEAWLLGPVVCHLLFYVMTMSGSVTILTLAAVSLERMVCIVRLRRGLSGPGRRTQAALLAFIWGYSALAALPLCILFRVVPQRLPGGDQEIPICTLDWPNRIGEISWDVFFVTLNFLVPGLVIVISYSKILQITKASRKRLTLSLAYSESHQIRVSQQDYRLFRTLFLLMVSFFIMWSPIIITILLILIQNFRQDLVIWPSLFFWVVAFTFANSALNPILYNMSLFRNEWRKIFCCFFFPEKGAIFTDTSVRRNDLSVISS

[7] = Terminal half life in mouse plasma at 2 mg/kg, iv or 30 mg/kg, po by LC/MS/MS analysis; format: ADME, organism-based; conditions: read-out: beta t1/2 (converted)
[8] = Mean residence time in rat plasma at 1 mg/kg, iv or 2 mg/kg, po by LC/MS/MS analysis; format: ADME, organism-based
[9] = Protein binding in mouse plasma at 2 mg/kg, iv or 30 mg/kg, po by LC/MS/MS analysis; format: ADME, organism-based; conditions: read-out: PPB (converted)
[10] = target: T3, Free fatty acid receptor 4 (Homo sapiens) (UniProt Q5NUL3); test: Agonist activity at human GPR120 short isoform expressed in CHOK1 cells assessed as increase in IP1 accumulation at 10 uM after 60 mins by HTRF assay; format: functional, cell-based; conditions: CHO-K1
T3 sequence (whole entry): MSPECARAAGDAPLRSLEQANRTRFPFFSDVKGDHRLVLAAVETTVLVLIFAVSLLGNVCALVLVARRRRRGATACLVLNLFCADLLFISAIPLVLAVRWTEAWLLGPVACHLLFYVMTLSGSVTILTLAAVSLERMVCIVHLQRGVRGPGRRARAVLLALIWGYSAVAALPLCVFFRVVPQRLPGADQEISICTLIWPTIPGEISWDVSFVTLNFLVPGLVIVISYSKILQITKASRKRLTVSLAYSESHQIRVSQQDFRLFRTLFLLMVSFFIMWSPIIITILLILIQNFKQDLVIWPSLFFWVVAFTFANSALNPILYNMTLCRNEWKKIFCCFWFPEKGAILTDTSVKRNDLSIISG

[11] = target: Voltage-dependent L-type calcium channel subunit alpha-1C (Homo sapiens, UniProt Q13936); test: Inhibition of Cav1.2 (unknown origin)
Voltage-dependent L-type calcium channel subunit alpha-1C, sequence (Q13936 whole entry): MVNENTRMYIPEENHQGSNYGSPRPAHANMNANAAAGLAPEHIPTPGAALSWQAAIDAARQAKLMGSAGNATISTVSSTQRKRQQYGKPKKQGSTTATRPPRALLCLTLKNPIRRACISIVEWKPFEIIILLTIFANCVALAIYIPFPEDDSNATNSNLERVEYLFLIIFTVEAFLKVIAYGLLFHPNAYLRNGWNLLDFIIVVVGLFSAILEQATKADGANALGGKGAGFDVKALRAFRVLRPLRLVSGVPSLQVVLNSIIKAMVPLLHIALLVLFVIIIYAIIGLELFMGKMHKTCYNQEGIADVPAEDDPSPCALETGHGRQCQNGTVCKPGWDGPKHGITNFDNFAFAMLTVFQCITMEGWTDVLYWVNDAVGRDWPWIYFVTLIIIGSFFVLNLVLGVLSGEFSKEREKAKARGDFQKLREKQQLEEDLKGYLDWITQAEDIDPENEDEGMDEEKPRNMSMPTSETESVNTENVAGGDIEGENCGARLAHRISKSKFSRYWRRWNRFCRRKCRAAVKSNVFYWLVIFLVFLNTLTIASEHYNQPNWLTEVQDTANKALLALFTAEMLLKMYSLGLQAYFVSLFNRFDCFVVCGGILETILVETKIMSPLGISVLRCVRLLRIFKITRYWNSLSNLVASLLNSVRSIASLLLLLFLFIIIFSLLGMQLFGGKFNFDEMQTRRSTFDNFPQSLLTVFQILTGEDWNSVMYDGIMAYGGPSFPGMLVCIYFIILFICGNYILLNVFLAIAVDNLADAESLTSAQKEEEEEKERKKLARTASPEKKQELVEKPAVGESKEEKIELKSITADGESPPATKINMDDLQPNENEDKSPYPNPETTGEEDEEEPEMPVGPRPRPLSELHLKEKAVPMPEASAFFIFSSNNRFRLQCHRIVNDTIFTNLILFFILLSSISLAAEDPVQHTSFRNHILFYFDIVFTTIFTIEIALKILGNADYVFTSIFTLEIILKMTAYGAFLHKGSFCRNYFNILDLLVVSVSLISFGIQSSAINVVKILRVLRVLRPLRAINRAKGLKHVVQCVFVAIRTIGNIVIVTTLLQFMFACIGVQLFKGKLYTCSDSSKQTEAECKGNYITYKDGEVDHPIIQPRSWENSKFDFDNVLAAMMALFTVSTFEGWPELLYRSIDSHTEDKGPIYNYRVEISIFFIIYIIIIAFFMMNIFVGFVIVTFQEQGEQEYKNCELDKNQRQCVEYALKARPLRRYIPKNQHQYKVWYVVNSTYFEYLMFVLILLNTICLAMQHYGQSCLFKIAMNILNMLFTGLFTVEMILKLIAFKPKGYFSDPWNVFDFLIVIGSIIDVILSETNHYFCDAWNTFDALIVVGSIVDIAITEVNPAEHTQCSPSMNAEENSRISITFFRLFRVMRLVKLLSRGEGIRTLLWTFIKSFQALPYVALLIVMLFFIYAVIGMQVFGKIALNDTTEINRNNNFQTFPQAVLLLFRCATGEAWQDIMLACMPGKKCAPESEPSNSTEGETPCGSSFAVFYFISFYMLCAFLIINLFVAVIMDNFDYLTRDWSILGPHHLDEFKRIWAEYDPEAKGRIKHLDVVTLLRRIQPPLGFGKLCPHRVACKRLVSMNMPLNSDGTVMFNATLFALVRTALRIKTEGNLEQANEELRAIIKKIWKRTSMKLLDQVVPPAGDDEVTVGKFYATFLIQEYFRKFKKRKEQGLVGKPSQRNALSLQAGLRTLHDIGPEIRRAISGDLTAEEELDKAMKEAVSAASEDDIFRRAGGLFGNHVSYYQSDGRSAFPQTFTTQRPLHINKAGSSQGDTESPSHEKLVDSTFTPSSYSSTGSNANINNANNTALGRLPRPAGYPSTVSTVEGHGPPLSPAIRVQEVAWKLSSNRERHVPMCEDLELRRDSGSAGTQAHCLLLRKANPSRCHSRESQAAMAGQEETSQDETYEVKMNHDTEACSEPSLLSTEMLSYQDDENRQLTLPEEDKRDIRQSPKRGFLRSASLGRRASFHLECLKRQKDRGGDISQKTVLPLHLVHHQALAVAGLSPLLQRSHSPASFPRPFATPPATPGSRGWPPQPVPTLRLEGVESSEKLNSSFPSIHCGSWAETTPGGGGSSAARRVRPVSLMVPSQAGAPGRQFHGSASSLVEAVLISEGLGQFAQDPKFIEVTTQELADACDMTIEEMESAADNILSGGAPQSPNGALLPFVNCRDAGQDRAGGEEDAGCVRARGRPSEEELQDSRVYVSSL

[12] = Mean residence time in mouse plasma at 2 mg/kg, iv or 30 mg/kg, po by LC/MS/MS analysis; format: ADME, organism-based
[13] = Plasma concentration in C57BL/6 transverse aortic constriction mouse at 30 mg/kg, po via gavage measured at 3 hrs; format: ADME, organism-based; conditions: C57BL/6, mouse
[14] = target: T4, Peroxisome proliferator-activated receptor gamma (Homo sapiens) (UniProt P37231); test: Activity at PPARgamma (unknown origin)
T4 sequence (whole entry): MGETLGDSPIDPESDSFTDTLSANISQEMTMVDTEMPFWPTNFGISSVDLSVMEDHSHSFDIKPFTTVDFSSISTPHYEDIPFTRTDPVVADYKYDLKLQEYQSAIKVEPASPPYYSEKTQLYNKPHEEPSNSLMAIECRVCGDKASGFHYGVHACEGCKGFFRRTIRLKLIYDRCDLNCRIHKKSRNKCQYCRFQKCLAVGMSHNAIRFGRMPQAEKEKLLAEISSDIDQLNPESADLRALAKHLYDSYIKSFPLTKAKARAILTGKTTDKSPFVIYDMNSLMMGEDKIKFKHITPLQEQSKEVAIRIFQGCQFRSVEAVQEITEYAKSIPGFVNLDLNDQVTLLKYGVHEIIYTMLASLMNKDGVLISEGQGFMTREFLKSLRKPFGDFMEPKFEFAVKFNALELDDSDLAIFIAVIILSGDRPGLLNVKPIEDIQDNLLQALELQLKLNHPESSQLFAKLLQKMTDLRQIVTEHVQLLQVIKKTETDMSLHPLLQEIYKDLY

[15] = Protein binding in rat plasma at 0.1 mg/kg administered as iv casette dose by LC/MS/MS analysis; format: ADME, organism-based; conditions: read-out: PPB (converted)
[16] = Intrinsic clearance in mouse plasma at 2 mg/kg, iv or 30 mg/kg, po by LC/MS/MS analysis; format: ADME, organism-based; conditions: in vivo
[17] = Terminal half life in rat plasma at 0.1 mg/kg administered as iv casette dose by LC/MS/MS analysis; format: ADME, organism-based; conditions: read-out: beta t1/2 (converted)
[18] = target: Cytochrome P450 2C9 (Homo sapiens, UniProt P11712); test: Inhibition of human CYP2C9; format: ADME
Cytochrome P450 2C9, sequence (P11712 whole entry): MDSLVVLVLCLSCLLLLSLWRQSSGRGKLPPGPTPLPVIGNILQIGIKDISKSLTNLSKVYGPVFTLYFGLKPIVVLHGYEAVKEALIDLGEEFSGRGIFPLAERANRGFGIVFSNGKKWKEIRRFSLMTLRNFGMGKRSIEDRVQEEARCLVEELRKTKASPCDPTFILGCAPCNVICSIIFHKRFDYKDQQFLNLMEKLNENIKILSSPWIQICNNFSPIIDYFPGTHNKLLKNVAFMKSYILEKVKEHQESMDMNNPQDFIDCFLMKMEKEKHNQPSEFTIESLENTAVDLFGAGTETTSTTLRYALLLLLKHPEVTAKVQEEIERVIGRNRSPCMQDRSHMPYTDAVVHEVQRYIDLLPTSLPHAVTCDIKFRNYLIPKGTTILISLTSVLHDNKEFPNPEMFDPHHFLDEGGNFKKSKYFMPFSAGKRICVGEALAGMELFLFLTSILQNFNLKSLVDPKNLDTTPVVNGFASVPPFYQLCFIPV

[19] = target: Free fatty acid receptor 1 (Homo sapiens, UniProt O14842); test: Agonist activity at human GPR40 expressed in HEK293 cells assessed as increase in IP1 accumulation after 60 mins by HTRF assay; format: functional, cell-based
Free fatty acid receptor 1, sequence (O14842 whole entry): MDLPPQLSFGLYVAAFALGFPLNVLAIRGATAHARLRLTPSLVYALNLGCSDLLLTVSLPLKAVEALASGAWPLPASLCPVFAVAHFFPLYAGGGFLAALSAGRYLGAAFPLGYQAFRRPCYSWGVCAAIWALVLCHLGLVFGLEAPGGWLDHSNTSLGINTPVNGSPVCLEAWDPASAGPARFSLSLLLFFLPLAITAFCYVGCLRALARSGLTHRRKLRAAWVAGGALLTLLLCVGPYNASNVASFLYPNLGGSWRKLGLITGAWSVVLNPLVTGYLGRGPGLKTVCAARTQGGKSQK

[20] = AUC in mouse plasma at 2 mg/kg, iv by LC/MS/MS analysis; format: ADME, organism-based

In the case of `CO[C@H]1C[C@H](Oc2cc(F)c(F)c(-c3ccc4c(c3)CC[C@H](CCC(=O)O)O4)n2)C1`, the Activity [1] is reported as “Active”, the Activity [2] is reported as “Active” and the Activity [3] is reported as greater than 10 µM. For the same molecule, the concentration at 3 h [4] was 53.4 µM, the half-life [5] was 9.8 h and the EC50 [6] was 0.0064 µM. It also gave a half-life [7] of 3 h, an MRT [8] of 4.6 h and a fraction unbound [9] of 0.0033. It also gave an Activity [10] greater than 50%, an IC50 [11] of 28 µM and an MRT [12] of 2.4 h. For the same molecule, the concentration at 3 h [13] was 3.12 µM, the Activity [14] was greater than 10 µM and the fraction unbound [15] was 0.0024. It also gave a CL [16] of 204 L/h/kg, a half-life [17] of 2.1 h and an IC50 [18] greater than 50 µM. For the same molecule, the EC50 [19] was greater than 10 µM and the AUC [20] was 8.1 µM·h.
